Measured values reported in US20230348459A1, “PYRROLIDINE COMPOUND AND USE THEREOF” (SIMCERE PHARMACEUTICAL CO., LTD., priority 2020, published 2023).
pIC50: −log10 of the molar value.

What was measured:
MCF7 cells = experiment: Inhibition of the proliferation of MCF7 cells (CellTiter-Glo); type: cell-based; conditions: Homo sapiens, MCF7, 168 h; 7 days treatment; read-out: MCF-7 cell proliferation inhibition IC50
Procedure: The purpose of the experiment is to determine the inhibitory effect of the compounds of the present invention on the proliferation of MCF7 cells in vitro, and to evaluate the activity of the compounds according to IC50 and maximum inhibitory efficiency.
MCF7 cells (ATCC, HTB-22) were cultured in DMEM (Gibco, 11995-065) complete medium containing 10% fetal bovine serum. On the first day of the experiment, MCF7 cells were inoculated in a 384-well plate at a density of 500 cells/well using the complete medium, and cultured in a 37° C., 5% CO2 cell incubator overnight. The next day, the compounds to be tested were added for drug treatment, and the compound solution with a stock concentration of 10 mM was diluted with Echo550 (Labcyte Inc.) and transferred to each cell culture well. Each compound with the starting concentration for treatment of 100 nM in cells was subjected to 3-fold gradient dilution with 9 concentration points. A blank control containing 0.3% DMSO was set, and double replicate wells as controls were set at each concentration point. The culture was cultured in a 37° C., 5% CO2 cell incubator for 7 days, and the cell culture plate was taken out on day 8.

[1] = biological target: estrogen receptors in MCF7 cells (Homo sapiens (Human), UniProt P03372); experiment: Degradation of estrogen receptors in MCF7 cells (in-cell western); type: cell-based; conditions: for DC50: 24 hours treatment, read-out: ER level DC50; for Dmax: 24 hours, 0.1 µM fulvestrant = 100% degradation control, read-out: Maximum degradation rate
Procedure: The purpose of the experiment is to determine the degradation activity of the compounds of the present invention on endogenously expressed estrogen receptors in MCF7 cells, and to evaluate the activity of the compounds according to DC50 and maximum degradation efficiency.
MCF7 cells (ATCC, HTB-22) were cultured in DMEM (Gibco, 11995-065) complete medium containing 10% fetal bovine serum. On the first day of the experiment, MCF7 cells were inoculated in a 384-well plate at a density of 3000 cells/well using the complete medium, and cultured in a 37° C., 5% CO2 cell incubator. The compounds to be tested were dissolved in DMSO with a stock concentration of 10 mM, the solution was diluted with Echo 550 (Labcyte Inc.) and added to the cell culture plate. Each compound with the starting concentration for treatment of 100 nM was subjected to 3-fold gradient dilution with 9 concentration points. A blank control containing 0.5% DMSO was set, and double replicate wells as controls were set at each concentration point. The culture was cultured in a 37° C., 5% CO2 cell incubator for 24 hours. Paraformaldehyde was added to the cell culture medium in each cell culture well, and the final concentration of paraformaldehyde was about 3.7% to fix the cells. After the mixture was reacted for 30 minutes, the supernatant was discarded, and 50 µL of PBS was added to each well for washing once. The cells were treated with PBS containing 0.5% v/v Tween-20 for 30 minutes, and washed with PBS once. A blocking solution (PBS containing 5% BSA, 0.05% Tween-20) was added, and the mixture was incubated at room temperature for 1 hour. The blocking solution was removed, a mixture solution of primary antibodies (anti-ER mAb, Estrogen Receptor α (D8H8) Rabbit mAb, GST, # 8644S, 1 : 1000 dilution; anti-GAPDH mAb, GAPDH(D4C6R) Mouse mAb, GST, #97166S, 1 : 2000 dilution) was added, and the mixture was incubated at room temperature for 3 hours. The culture was washed with PBST (PBS containing 0.05% Tween-20) 3 times. Secondary antibodies for detection (800CW-goat anti-rabbit IgG, LI-COR, P/N: 926-32211, 1 : 1000 dilution; 680RD-goat anti-mouse IgG, LI-COR, #925-68070, 1 : 1000 dilution) were added, and the mixture was incubated at room temperature and in the dark for 45 minutes. After washing with PBST 3 times, the fluorescence signal of each well was read using Odyssey CLx, and the value of Chanel 800 (ER)/Chanel 680 (GAPDH) was calculated. The wells treated with 0.1 µM fulvestrant were used as the 100% degradation control, and the degradation rate at each concentration point was calculated. The data were analyzed and processed by XlLfit, and the degradation activity DC50 and the maximum degradation rate Imax of each compound were calculated.

MCF-7 intracranial tumor = experiment: Growth inhibition in MCF-7 intracranial tumor model in mice; conditions: 250 mg/kg SC once weekly
Procedure: Animal information: NPG mice (female, 6-8 weeks, body weight: about 17-29 g) were purchased from Beijing Vitalstar Biotechnology Co., Ltd. The mice were fed in SPF environment and each cage position was individually ventilated.
Cell culture: The human breast cancer MCF-7 cell line was cultured in vitro in EMEM (cell culture medium) supplemented with 10% fetal bovine serum, 1% Pen Strep and 10 µg/ml recombinant human insulin in a 37° C., 5% CO2 incubator. Conventional digestion treatment with 0.25% trypsin-EDTA digestion solution was carried out twice weekly for passage. When the cell saturation was 80%-90%, and the number reached the requirement, the cells were collected and counted.
Cell inoculation: 15 µl/(containing 2 × 10^6) MCF-7 cell suspension was inoculated into the brain of mice using a stereotaxic apparatus, a micro-injection pump and a miniature handheld cranial drill, and the mice were subcutaneously inoculated with 17β-estradiol tablets three days before the cell inoculation. On day 8 after cell inoculation, the mice were randomized into groups for administration according to the body weight thereof, and the day of grouping was Day 0.
11 mice were in the vehicle group and 8 mice were in the administration group. Mice in all groups were continuously administered until the mice died, which were euthanized due to poor state or the end of the experiment.
The body weight of the mice was measured twice weekly, and the survival status of the mice was observed.
At the end of the experiment on Day 48, all mice were euthanized.

Sequence of estrogen receptors in MCF7 cells (P03372 whole entry): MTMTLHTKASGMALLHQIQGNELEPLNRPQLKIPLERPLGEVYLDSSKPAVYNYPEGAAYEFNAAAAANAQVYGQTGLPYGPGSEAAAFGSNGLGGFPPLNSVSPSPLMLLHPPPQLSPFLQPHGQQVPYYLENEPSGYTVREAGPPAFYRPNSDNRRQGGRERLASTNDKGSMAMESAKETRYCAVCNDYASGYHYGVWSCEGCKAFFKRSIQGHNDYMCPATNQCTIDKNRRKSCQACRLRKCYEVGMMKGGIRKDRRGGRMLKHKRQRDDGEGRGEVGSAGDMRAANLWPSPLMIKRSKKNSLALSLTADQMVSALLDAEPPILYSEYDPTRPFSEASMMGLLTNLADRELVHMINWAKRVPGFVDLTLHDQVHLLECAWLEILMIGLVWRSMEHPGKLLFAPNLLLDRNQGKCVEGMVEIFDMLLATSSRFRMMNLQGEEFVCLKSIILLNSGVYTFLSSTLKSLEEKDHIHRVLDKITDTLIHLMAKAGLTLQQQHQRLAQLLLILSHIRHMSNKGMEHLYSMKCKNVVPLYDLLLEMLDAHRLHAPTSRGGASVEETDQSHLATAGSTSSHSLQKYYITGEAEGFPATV

Row | Structure (SMILES) | pIC50 (MCF7 cells) | DC50 [1] [nM] | Dmax [1] [%] | Body weight of mice (MCF-7 intracranial tumor) | Median survival period (MCF-7 intracranial tumor) [days]
1 | C[C@@H]1Cc2c([nH]c3ccccc23)[C@@H](c2c(F)cc(N[C@@H]3CN(CCCF)C[C@H]3F)cc2F)N1CC(F)(F)F (stereo in doubt) [Example 5, trans-N-(3,5-difluoro-4-((1S,3R)-3-methyl-2-(2,2,2-trifluoroethyl)-2,3,4,9-tetrahydro-1H-pyridino[3,4-b]indol-1-yl)phenyl)-4-fluoro-1-(3-fluoropropyl)pyrrolidin-3-amine] | 8.59 | 0.58 | 80 |  | 
2 | C[C@@H]1CN(CCCF)C[C@H]1Nc1cc(F)c([C@@H]2c3[nH]c4ccccc4c3C[C@@H](C)N2CC(F)(F)F)c(F)c1 (stereo in doubt) [Example 6, trans-N-[3,5-difluoro-4-[(1S,3R)-3-methyl-2-(2,2,2-trifluoroethyl)-1,3,4,9-tetrahydropyridino[3,4-b]indol-1-yl]phenyl]-1-(3-fluoropropyl)-4-methyl-pyrrolidin-3-amine] | 8.62 | 0.5 | 90 |  | 
3 | C[C@@H]1Cc2c([nH]c3ccccc23)[C@@H](c2ccc(NC3CCN(CCCF)C3)cn2)N1CC(F)(F)F (stereo partly drawn) [Example 1, N-(1-(3-fluoropropyl)pyrrolidin-3-yl)-6-((1S,3R)-3-methyl-2-(2,2,2-trifluoroethyl)-2,3,4,9-tetrahydro-1H-pyridino[3,4-b]indol-1-yl)pyridine-3-amine] | 9.24 | 0.41 | 106 |  | 
4 | C[C@@H]1Cc2c([nH]c3ccccc23)[C@@H](c2ccc(N[C@@H]3CCN(CCCF)C3)cn2)N1CC(F)(F)F [Example 2] | 7.82 | 8.5 | 92 |  | 
5 | C[C@]12CC[C@@H]3c4ccc(O)cc4C[C@@H](CCCCCCCCC[S+]([O-])CCCC(F)(F)C(F)(F)F)[C@H]3[C@@H]1CC[C@@H]2O (some centres unmarked) [Fulvestrant, reference compound] |  |  |  | continued to lose weight | 29.5
